Tests used:
[1] = test system: AVEFA; assay: Herbicidal post-emergence action 1a (greenhouse pots, visual rating); format: in vivo, Avena fatua; conditions: rated visually about 3 weeks after treatment, 100% = plants have died, 0% = like control plants
In short: (§1)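 Visual scoring versus untreated plants (100% = plants dead, 0% = as control) followed roughly 3 weeks in the greenhouse after treatment. Plants grown in sandy loam pots had been sprayed on green parts at the one-leaf stage, 2–3 weeks post-sowing, with aqueous WP/EC preparations containing 0.5% additive, 600 l/ha, at 320 and/or 80 g/ha.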

[2] = test system: ABUTH; assay: Herbicidal pre-emergence action 2a (greenhouse pots, visual scoring); format: in vivo, Abutilon theophrasti; conditions: dosage 320 g/ha, visual scoring after about 3 weeks vs untreated controls
From the text: [table] a) Seeds of monocotyledonous and dicotyledonous weed plants and crop plants are placed in plastic or organic plant pots and covered with soil. The compounds of the invention, formulated in the form of wettable powders (WP) or as emulsion concentrates (EC), are then applied onto the surface of the covering soil as aqueous suspension or emulsion with addition of 0.5% additive at a water application rate of 600 1/ha (converted). After the treatment, the pots are placed in a greenhouse and kept under good growth conditions for the trial plants. After about 3 weeks, the effect of the preparations is scored visually in comparison with untreated controls as percentages. For example, 100% activity=the plants have died, 0% activity=like control plants. Tables B1 to B15 below show the effects of selected compounds of the general formula (I) according to Tables 1 and 2 on various harmful plants and an application rate corresponding to 320 g/ha and/or 80 g/ha, which were obtained by the experimental procedure mentioned above.

[3] = test system: POLCO; assay: Herbicidal post-emergence action 1a (greenhouse pots, visual rating); format: in vivo, Polygonum convolvulus; conditions: visual rating about 3 weeks after treatment
In short: as §1

[4] = test system: MATIN; assay: as above; format: in vivo, Matricaria inodora; conditions: visual rating about 3 weeks after treatment
In short: as §1

[5] = test system: AMARE; assay: Herbicidal pre-emergence action 2a (greenhouse pots, visual scoring); format: in vivo, Amaranthus retroflexus; conditions: dosage 320 g/ha, visual scoring after about 3 weeks vs untreated controls
In short: (§2)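 Sow, cover with soil, spray soil surface (WP or EC in water, 0.5% additive, 600 l/ha; 320 and/or 80 g/ha), grow in greenhouse ~3 weeks, score visually in % against untreated controls.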

[6] = test system: SETVI; assay: as above; format: in vivo, Setaria viridis; conditions: dosage 320 g/ha, visual scoring after about 3 weeks vs untreated controls
In short: as §2

[7] = test system: LOLRI; assay: Herbicidal post-emergence action 1a (greenhouse pots, visual rating); format: in vivo, Lolium rigidum; conditions: rated visually about 3 weeks after treatment, 100% = plants have died, 0% = like control plants
In short: as §1

[8] = test system: LOLRI; assay: Herbicidal pre-emergence action 2a (greenhouse pots, visual scoring); format: in vivo, Lolium rigidum; conditions: dosage 320 g/ha, visual scoring after about 3 weeks vs untreated controls
In short: as §2

[9] = test system: PHBPU; assay: as above; format: in vivo, Pharbitis purpurea; conditions: dosage 320 g/ha, visual scoring after about 3 weeks vs untreated controls
In short: as §2

[10] = test system: POLCO; assay: as above; format: in vivo, Polygonum convolvulus; conditions: dosage 320 g/ha, visual scoring after about 3 weeks vs untreated controls
In short: as §2

[11] = test system: AVEFA; assay: as above; format: in vivo, Avena fatua; conditions: dosage 320 g/ha, visual scoring after about 3 weeks
In short: as §2

[12] = test system: ECHCG; assay: Herbicidal post-emergence action 1a (greenhouse pots, visual rating); format: in vivo, Echinochloa crus-galli; conditions: rated visually about 3 weeks after treatment, 100% = plants have died, 0% = like control plants
In short: as §1

[13] = test system: ALOMY; assay: as above; format: in vivo, Alopecurus myosuroides; conditions: rated visually about 3 weeks after treatment, 100% = plants have died, 0% = like control plants
In short: as §1

[14] = test system: VERPE; assay: as above; format: in vivo, Veronica persica; conditions: visual rating about 3 weeks after treatment
In short: as §1

[15] = test system: MATIN; assay: Herbicidal pre-emergence action 2a (greenhouse pots, visual scoring); format: in vivo, Matricaria inodora; conditions: dosage 320 g/ha, visual scoring after about 3 weeks vs untreated controls
In short: as §2

[16] = test system: SETVI; assay: Herbicidal post-emergence action 1a (greenhouse pots, visual rating); format: in vivo, Setaria viridis; conditions: rated visually about 3 weeks after treatment, 100% = plants have died, 0% = like control plants
In short: as §1

[17] = test system: ALOMY; assay: Herbicidal pre-emergence action 2a (greenhouse pots, visual scoring); format: in vivo, Alopecurus myosuroides; conditions: dosage 320 g/ha, visual scoring after about 3 weeks
In short: as §2

[18] = test system: VERPE; assay: as above; format: in vivo, Veronica persica; conditions: dosage 320 g/ha, visual scoring after about 3 weeks vs untreated controls
In short: as §2

[19] = test system: ECHCG; assay: as above; format: in vivo, Echinochloa crus-galli; conditions: dosage 320 g/ha, visual scoring after about 3 weeks
In short: as §2

[20] = test system: PHBPU; assay: Herbicidal post-emergence action 1a (greenhouse pots, visual rating); format: in vivo, Pharbitis purpurea; conditions: visual rating about 3 weeks after treatment
In short: as §1

[21] = test system: AMARE; assay: as above; format: in vivo, Amaranthus retroflexus; conditions: visual rating about 3 weeks after treatment
In short: as §1

SMILES	Post-emergence action against AVEFA in % ([1]; Dosage 320 g/ha) [%]	Pre-emergence action against ABUTH in % [2] [%]	Post-emergence action against POLCO in % ([3]; dosage 80 g/ha) [%]	Post-emergence action against POLCO in % ([3]; dosage 320 g/ha) [%]	Post-emergence action against MATIN in % ([4]; dosage 80 g/ha) [%]	Post-emergence action against MATIN in % ([4]; dosage 320 g/ha) [%]	Pre-emergence action against AMARE in % [5] [%]	Pre-emergence action against SETVI in % [6] [%]	Post-emergence action against LOLRI in % ([7]; Dosage 80 g/ha) [%]	Post-emergence action against LOLRI in % ([7]; Dosage 320 g/ha) [%]	Pre-emergence action against LOLRI in % [8] [%]	Pre-emergence action against PHBPU in % [9] [%]	Pre-emergence action against POLCO in % [10] [%]	Pre-emergence action against AVEFA in % [11] [%]	Post-emergence action against ECHCG in % ([12]; Dosage 80 g/ha) [%]	Post-emergence action against ECHCG in % ([12]; Dosage 320 g/ha) [%]	Post-emergence action against ALOMY in % ([13]; Dosage 320 g/ha) [%]	Post-emergence action against VERPE in % ([14]; dosage 80 g/ha) [%]	Post-emergence action against VERPE in % ([14]; dosage 320 g/ha) [%]	Pre-emergence action against MATIN in % [15] [%]	other results
C[C@@H](Oc1nn(-c2cnccn2)c(-c2cncc(F)c2)c1Br)C(=O)O [Example I-96]	90	90	80	80	80	90	100	100	100	100	100	90	100	90	80	90	100	90	90	100	Post-emergence action against SETVI in % ([16]; Dosage 80 g/ha): 90%; Post-emergence action against SETVI in % ([16]; Dosage 320 g/ha): 90%; Pre-emergence action against ALOMY in % [17]: 100%; Pre-emergence action against VERPE in % [18]: 100%; Pre-emergence action against ECHCG in % [19]: 100%; Post-emergence action against PHBPU in % ([20]; dosage 80 g/ha): 90%; Post-emergence action against PHBPU in % ([20]; dosage 320 g/ha): 90%
CCOC(=O)[C@@H](C)Oc1nn(-c2cnccn2)c(-c2cncc(F)c2)c1Br [Example I-99]	100	90	80	80	80	90	100	100	100	100	100	90	90	90	90	90	100	90	90	100	Post-emergence action against AMARE in % ([21]; dosage 80 g/ha): 90%; Post-emergence action against AMARE in % ([21]; dosage 320 g/ha): 90%; Post-emergence action against AVEFA in % ([1]; Dosage 80 g/ha): 80%; Post-emergence action against ALOMY in % ([13]; Dosage 80 g/ha): 80%; Post-emergence action against SETVI in % ([16]; Dosage 80 g/ha): 90%; Post-emergence action against SETVI in % ([16]; Dosage 320 g/ha): 90%; Pre-emergence action against ALOMY in % [17]: 100%; Pre-emergence action against VERPE in % [18]: 100%; Pre-emergence action against ECHCG in % [19]: 100%; Post-emergence action against PHBPU in % ([20]; dosage 80 g/ha): 80%; Post-emergence action against PHBPU in % ([20]; dosage 320 g/ha): 90%

Source: patent publication US20230167088A1, “1-PYRAZINYLPYRAZOLYL-3-OXYALKYL ACIDS AND THEIR DERIVATIVES, AND THEIR USE FOR CONTROL OF UNDESIRED PLANT GROWTH” (BAYER AKTIENGESELLSCHAFT, priority 2020, published 2023)
